Data published in patent publication US10183938B2, “Geminal substituted quinuclidine amide compounds as agonists of α-7 nicotonic acetylcholine receptors” (AXOVANT SCIENCES GMBH, priority 2014, dated 2019).
pKi: −log10 of the molar value. Where a name gives a salt, the structure may show the parent alone.

Experiments:
[1] = target: human α7 nAChRs transiently expressed in Xenopus laevis oocytes (Homo sapiens (Human), UniProt P36544); assay: Oocyte electrophysiology screen (TEVC); format: cell-based; settings: 0.01 mM test compound, peak current relative to 0.2 mM ACh
human α7 nAChRs transiently expressed in Xenopus laevis oocytes, sequence (P36544 23-502 limits assumed): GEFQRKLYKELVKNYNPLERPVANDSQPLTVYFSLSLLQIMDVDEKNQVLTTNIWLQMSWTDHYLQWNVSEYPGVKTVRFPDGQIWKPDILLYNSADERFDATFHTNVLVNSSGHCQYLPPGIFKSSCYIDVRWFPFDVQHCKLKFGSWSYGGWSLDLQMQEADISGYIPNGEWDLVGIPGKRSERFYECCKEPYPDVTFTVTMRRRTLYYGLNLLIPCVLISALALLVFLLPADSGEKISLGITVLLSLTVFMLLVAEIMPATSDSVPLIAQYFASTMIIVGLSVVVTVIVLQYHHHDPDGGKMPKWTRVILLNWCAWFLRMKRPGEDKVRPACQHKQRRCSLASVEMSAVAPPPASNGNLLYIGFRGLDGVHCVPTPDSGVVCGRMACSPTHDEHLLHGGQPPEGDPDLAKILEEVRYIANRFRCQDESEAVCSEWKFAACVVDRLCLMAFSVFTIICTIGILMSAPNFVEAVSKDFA
Method in brief: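 Peak inward current from 0.01 mM compound, applied 30 s, is expressed relative to a 5 s 0.2 mM ACh reference response, in triplicate. Recordings used two-electrode voltage clamp at −80 mV in Xenopus oocytes with 90 s OR2 washes.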

[2] = test system: male Wistar rats; assay: Novel Object Recognition task (natural forgetting); format: in vivo, rat; settings: sub-cutaneous, 30 minutes before T1, 48-hour retention interval, p<0.05 novel vs. familiar object
From the text: Novel Object Recognition Task:
The Novel Object Recognition (NOR) task is a behavioral assay commonly used to evaluate cognition, particularly recognition memory, in rodent models of CNS disorders. This test is based on the spontaneous tendency of rodents to spend more time exploring a novel object compared to a familiar one. The choice to explore the novel object reflects the use of learning and recognition memory. The assay is commonly used to evaluate potential therapeutic agents for Alzheimer's disease, other neurodegenerative diseases and psychiatric disorders.
Male Wistar rats (Harlan Laboratories) weighing 350-400 grams were housed under a reversed light cycle and are tested during the dark cycle. Testing was done under low lux conditions, measured to be ˜2-7 lux under red light. Animals were habituated and weighed one day prior to testing. During habituation, animals were placed in a cylindrical arena and allowed to explore for 3 minutes. Training (T1) was conducted approximately 24 hours later, with one set of identical objects placed on opposite sides of the arena. Animals were allowed to explore the objects in 3-minute sessions. Animals were dosed with a designated treatment 15-60 minutes prior to testing depending on the pharmacokinetic profile of the compound before the start of T1. Drug or vehicle was dosed subcutaneously based on body weight at 5 mL/kg. Testing (T2) was done at 48 hours after T1. During testing, one familiar object is replaced with a novel object. Animals were allowed to explore both objects in 3-minute sessions.
Animals were tracked using Noldus Ethovision XT (EthoVision XT version: 8.5, Noldus Inc. Wageningen, Netherlands) tracking software, using a 2 centimeter (cm) perimeter for each object as a separate zone. The test arena consisted of a cylinder, 80 cm diameter with 40 cm high walls of black acrylic that was opaque and matte. […]
Contact time was defined as the amount of time (seconds) an animal spent within the 2 cm perimeter of an object. […] Statistical significance was determined using a Mann Whitney U-test and the criterion was set at p<0.05. […]

[3] = target: human 5-HT3 serotonin receptors (Homo sapiens (Human), UniProt P46098); assay: [3H]BRL 43694 competition binding; settings: CHO cell membranes, [3H]BRL 43694, Cheng Prusoff; read-out: h-5HT3 Ki
human 5-HT3 serotonin receptors, sequence (P46098 24-478): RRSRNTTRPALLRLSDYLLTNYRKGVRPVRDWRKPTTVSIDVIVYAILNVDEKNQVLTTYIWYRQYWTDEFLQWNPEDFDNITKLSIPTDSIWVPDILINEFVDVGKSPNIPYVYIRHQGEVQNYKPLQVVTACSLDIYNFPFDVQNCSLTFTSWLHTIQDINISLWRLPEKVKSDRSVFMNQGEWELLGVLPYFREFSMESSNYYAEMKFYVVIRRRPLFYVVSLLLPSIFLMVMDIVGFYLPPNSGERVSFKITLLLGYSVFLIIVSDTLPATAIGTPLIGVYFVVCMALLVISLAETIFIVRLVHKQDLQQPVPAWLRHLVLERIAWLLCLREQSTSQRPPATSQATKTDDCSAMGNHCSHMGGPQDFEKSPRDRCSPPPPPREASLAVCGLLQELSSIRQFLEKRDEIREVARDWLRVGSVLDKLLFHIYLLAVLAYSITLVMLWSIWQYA

## O=C(NC1C2CCN(CC2)C12CC2)c1cc2ccc(Cl)cc2s1 (single isomer, unassigned; enantiomer1) [65a, 6-chloro-N-(1′-azaspiro[cyclopropane-1,2′-bicyclo[2.2.2]octan]-3′-yl)benzo[b]thiophene-2-carboxamide-enantiomer1 hydrochloride]
[1]; hydrochloride
  % ACh @ 10 μM Oocyte: 682 % ACh
[2]
  Active doses: 0.3 mg/kg

## Cc1ccc2cc(C(=O)NC3C4CCN(CC4)C34CC4)sc2c1 (single isomer, unassigned; enantiomer1) [68a, 6-methyl-N-(1′-azaspiro[cyclopropane-1,2′-bicyclo[2.2.2]octan]-3′-yl)benzo[b]thiophene-2-carboxamide-enantiomer1 hydrochloride]
[1]; hydrochloride
  % ACh @ 10 μM Oocyte: 769 % ACh
[2]
  Active doses: 0.001 mg/kg

## CC1(C)[C@H](NC(=O)c2cc3ccc(Cl)cc3s2)C2CCN1CC2 [(R)-12, (R)-6-chloro-N-(2,2-dimethylquinuclidin-3-yl)benzo[b]thiophene-2-carboxamide hydrochloride]
[3]
  pKi: < 5.00
[1]
  % ACh @ 10 μM Oocyte: 765 % ACh
[2]
  Active doses: 30 mg/kg

## O=C(N[C@@H]1C2CCN(CC2)C12CC2)c1cc2ccc(N3CCOCC3)cc2s1 [(R)-99, (R)-6-morpholino-N-(1′-azaspiro[cyclopropane-1,2′-bicyclo[2.2.2]octan]-3′-yl)benzo[b]thiophene-2-carboxamide hydrochloride]
[3]
  pKi: < 5.00
[1]
  % ACh @ 10 μM Oocyte: 1 % ACh

## O=C(N[C@@H]1C2CCN(CC2)C12CC2)c1cc2ccc(Br)cc2s1 [(R)-101, (R)-6-bromo-N-(1′-azaspiro[cyclopropane-1,2′-bicyclo[2.2.2]octan]-3′-yl)benzo[b]thiophene-2-carboxamide hydrochloride]
[3]
  pKi: < 5.00
[1]
  % ACh @ 10 μM Oocyte: 412 % ACh

## O=C(N[C@@H]1C2CCN(CC2)C12CC2)c1cc2ccc(C3CCOCC3)cc2s1 [(R)-105, (R)—N-(1′-azaspiro[cyclopropane-1,2′-bicyclo[2.2.2]octan]-3′-yl)-6-(tetrahydro-2H-pyran-4-yl)benzo[b]thiophene-2-carboxamide hydrochloride]
[3]
  pKi: < 5.00
[1]
  % ACh @ 10 μM Oocyte: 2 % ACh

## Cc1ccc2cc(C(=O)N[C@@H]3C4CCN(CC4)C34CC4)sc2c1F [(R)-106, (R)-7-fluoro-6-methyl-N-(1′-azaspiro[cyclopropane-1,2′-bicyclo[2.2.2]octan]-3′-yl)benzo[b]thiophene-2-carboxamide hydrochloride]
[3]
  pKi: < 5.00
[1]
  % ACh @ 10 μM Oocyte: 572 % ACh

## O=C(N[C@@H]1C2CCN(CC2)C12CC2)c1ccc2c(c1)OCCO2 [(R)-107, (R)—N-(1′-azaspiro[cyclopropane-1,2′-bicyclo[2.2.2]octan]-3′-yl)-2,3-dihydrobenzo[b][1,4]dioxine-6-carboxamide hydrochloride]
[3]
  pKi: < 5.00
[1]
  % ACh @ 10 μM Oocyte: 414 % ACh

## CC1(C)[C@H](NC(=O)c2cc3ccc(Cl)c(Cl)c3s2)C2CCN1CC2 [(R)-109, (R)-6,7-dichloro-N-(2,2-dimethylquinuclidin-3-yl)benzo[b]thiophene-2-carboxamide hydrochloride]
[3]
  pKi: 5.40
[1]
  % ACh @ 10 μM Oocyte: 432 % ACh

## CC1(C)[C@H](NC(=O)c2cc3ccc(Cl)c(F)c3s2)C2CCN1CC2 [(R)-110, (R)-6-chloro-N-(2,2-dimethylquinuclidin-3-yl)-7-fluorobenzo[b]thiophene-2-carboxamide hydrochloride]
[3]
  pKi: < 5.00
[1]
  % ACh @ 10 μM Oocyte: 444 % ACh

## CC1(C)[C@H](NC(=O)c2cc3ccc(F)c(Cl)c3s2)C2CCN1CC2 [(R)-114, (R)-7-chloro-N-(2,2-dimethylquinuclidin-3-yl)-6-fluorobenzo[b]thiophene-2-carboxamide hydrochloride]
[3]
  pKi: 6.21
[1]
  % ACh @ 10 μM Oocyte: 703 % ACh

## COc1cccc2cc(C(=O)N[C@@H]3C4CCN(CC4)C3(C)C)sc12 [(R)-116, (R)—N-(2,2-dimethylquinuclidin-3-yl)-7-methoxybenzo[b]thiophene-2-carboxamide hydrochloride]
[3]
  pKi: 6.22
[1]
  % ACh @ 10 μM Oocyte: 963 % ACh

## O=C(N[C@@H]1C2CCN(CC2)C12CC2)c1cc2ccc(Cl)c(Cl)c2s1 [(R)-150, (R)-6,7-dichloro-N-(1′-azaspiro[cyclopropane-1,2′-bicyclo[2.2.2]octan]-3′-yl)benzo[b]thiophene-2-carboxamide hydrochloride]
[3]
  pKi: 5.66
[1]
  % ACh @ 10 μM Oocyte: 443 % ACh

## O=C(N[C@@H]1C2CCN(CC2)C12CC2)c1cc2ccc(Cl)c(F)c2s1 [(R)-151, (R)-6-chloro-7-fluoro-N-(1′-azaspiro[cyclopropane-1,2′-bicyclo[2.2.2]octan]-3′-yl)benzo[b]thiophene-2-carboxamide hydrochloride]
[3]
  pKi: < 5.00
[1]
  % ACh @ 10 μM Oocyte: 409 % ACh

## COc1ccc2cc(C(=O)N[C@@H]3C4CCN(CC4)C34CC4)sc2c1F [(R)-155, (R)-7-fluoro-6-methoxy-N-(1′-azaspiro[cyclopropane-1,2′-bicyclo[2.2.2]octan]-3′-yl)benzo[b]thiophene-2-carboxamide hydrochloride]
[3]
  pKi: < 5.00
[1]
  % ACh @ 10 μM Oocyte: 513 % ACh

## Cc1ccc2cc(C(=O)N[C@@H]3C4CCN(CC4)C34CC4)sc2c1Cl [(R)-156, (R)-7-chloro-6-methyl-N-(1′-azaspiro[cyclopropane-1,2′-bicyclo[2.2.2]octan]-3′-yl)benzo[b]thiophene-2-carboxamide hydrochloride]
[3]
  pKi: 6.52
[1]
  % ACh @ 10 μM Oocyte: 403 % ACh

## O=C(N[C@@H]1C2CCN(CC2)C12CC2)c1cc2ccc(F)c(Cl)c2s1 [(R)-158, (R)-7-chloro-6-fluoro-N-(1′-azaspiro[cyclopropane-1,2′-bicyclo[2.2.2]octan]-3′-yl)benzo[b]thiophene-2-carboxamide hydrochloride]
[3]
  pKi: 6.43
[1]
  % ACh @ 10 μM Oocyte: 180 % ACh

## O=C(N[C@@H]1C2CCN(CC2)C12CC2)c1cc2ccc(C3CC3)c(F)c2s1 [(R)-159, (R)-6-cyclopropyl-7-fluoro-N-(1′-azaspiro[cyclopropane-1,2′-bicyclo[2.2.2]octan]-3′-yl)benzo[b]thiophene-2-carboxamide hydrochloride]
[3]
  pKi: < 5.00
[1]
  % ACh @ 10 μM Oocyte: 24 % ACh

## COc1cccc2cc(C(=O)N[C@@H]3C4CCN(CC4)C34CC4)sc12 [(R)-161, (R)-7-methoxy-N-(1′-azaspiro[cyclopropane-1,2′-bicyclo[2.2.2]octan]-3′-yl)benzo[b]thiophene-2-carboxamide hydrochloride]
[3]
  pKi: 6.18
[1]
  % ACh @ 10 μM Oocyte: 493 % ACh

## O=C(N[C@@H]1C2CCN(CC2)C12CC2)c1cc2ccc(Cl)cc2o1 [(R)-163, (R)-6-chloro-N-(1′-azaspiro[cyclopropane-1,2′-bicyclo[2.2.2]octan]-3′-yl)benzofuran-2-carboxamide hydrochloride]
[3]
  pKi: 5.70
[1]
  % ACh @ 10 μM Oocyte: 446 % ACh

## CC1(C)[C@H](NC(=O)c2cc3cccc(Cl)c3o2)C2CCN1CC2.Cl [(R)-217, (R)-7-chloro-N-(2,2-dimethylquinuclidin-3-yl)benzofuran-2-carboxamide hydrochloride]
[3]
  pKi: 5.96
[1]
  % ACh @ 10 μM Oocyte: 473 % ACh
